Data: patent publication US12146183B2, “Compound and a method for identifying a protein using said compound” (CITY UNIVERSITY OF HONG KONG, priority 2020, dated 2024)
Where a SMILES comes first, the peptide text is derived from it. The star is where a group is joined. ξ: configuration not given here. Lipoyl(6ξ) = O=C(CCCCC1CCSS1)*

B1: Sirt2 (Homo sapiens) (protein)
chain: MAEPDPSHPLETQAGKVQEAQDSDSDSEGGAAGGEADMDFLRNLFSQTLSLGSQKERLLDELTLEGVARYMQSERCRRVICLVGAGISTSAGIPDFRSPSTGLYDNLEKYHLPYPEAIFEISYFKKHPEPFFALAKELYPGQFKPTICHYFMRLLKDKGLLLRCYTQNIDTLERIAGLEQEDLVEAHGTFYTSHCVSASCRHEYPLSWMKEKIFSEVTPKCEDCQSLVKPDIVFFGESLPARFFSCMQSDFLKVDLLLVMGTSLQVQPFASLISKAPLSTPRLLINKEKAGQSDPFLGMIMGLGGGMDFDSKKAYRDVAWLGECDQGCLALAELLGWKKELEDLVRREHASIDAQSGAGVPNPSTSASPKKSPPPAKDEARTTEREKPQ
notes: made in house

Legend:
Sirt2 [1] = biological target: T1, Sirt2 (Homo sapiens, UniProt Q8IXJ6); experiment: HPLC delipoylation assay of lipoylated peptides with Sirt2; format: biochemical; conditions: Sirt2 + NAD+, 37° C., monitored at 280 nm after 40 min
T1 construct: made in house
T1 sequence (Q8IXJ6 1-389): B1 chain
Procedure: A total of 11 lipoylated peptides (KAlip-1 to KAlip-11) were synthesised. The peptide sequences were selected from proteins that have been reported as being lipoylated (PDH, KDH, BCKDH, and GCV) and non-lipoylated proteins (e.g., histone). The peptides were synthesized with a standard Fmoc solid phase synthesis approach and characterized by LC-MS. The delipoylation activity was then determined by an HPLC assay. Compared with non-putative peptides, putative lipoylated peptides appeared to be more efficiently hydrolyzed by Sirt2. For example, the delipoylated product of KAlip-1 (derived from histone) after 40 min was determined to be 59%, which is less than that of putative lipoylated substrates such as KAlip-5 and KAlip-6 (derived from PDH).
The lipoylated peptides KAlip-1 to -11 were incubated with sirtuin and cofactor NAD+ at 37° C. in 20 mM HEPES buffer (pH 8.0) containing 150 mM NaCl, 1 mM MgCl2, and 2.7 mM KCl. The reaction volume was set to 50 μL. At each specific reaction time point, the reaction mixtures were quenched by adding 250 μL of methanol. The reactions were vortexed and centrifuged. Supernatant was collected and then analysed by reverse phase HPLC. The new peak generated was collected for ESI-MS or MALDI-TOF-MS analysis directly.

Sirt2 [2] = biological target: T1, Sirt2; experiment: In-gel fluorescence photo-crosslinking labelling of recombinant Sirt2; format: binding; conditions: competition with probe KPlip
Procedure: The labelling efficiency of KPlip with recombinant Sirt2 was investigated. The Sirt2 enzyme was first incubated with either KPlip or a negative control probe, KPlip-C(lacking lipoylation), followed by 15 min of UV irradiation. Following click chemistry with rhodamine azide (Rh—N3), the reaction mixtures were resolved by SDS-PAGE and analysed by in-gel fluorescence scanning.
A further selectivity study was performed. […] To examine whether lipoic acid of KPlip forms a disulfide bond with cysteine residues in Sirt2, excessive reducing reagent TCEP was added to the solution containing Sirt2 and KPlip prior to UV irradiation.
20 μM azide reagent was added to the protein samples labelled by KPlip and KPlip-C. Tris(2-carboxyethyl)phosphine (0.4 mM), tris(3-hydroxypropyltriazolylmethyl)amine (40 μM), and CuSO 4 (0.4 mM) were then added. The reaction was kept at room temperature for 2 h.
After click chemistry reaction with rhodamine-azide, chilled acetone was added to the reaction mixtures. The reaction was then placed in a −20° C. freezer for 1 h to precipitate the proteins. The pellets were washed with cold methanol and air-dried. Finally, they were redissolved in 1×SDS loading buffer by heating at 95° C. for 10 min and then resolved by SDS-PAGE. The labelled proteins were visualized using a FLA-9000 Fujifilm scanner (Ex=532 nm).

[3] = substrate: CC[C@H](C)[C@H](NC(=O)[C@@H](NC(=O)[C@H](C)NC(=O)[C@H](CCCCNC(=O)CCCCC1CCSS1)NC(=O)[C@H](CC(=O)O)NC(=O)[C@@H](NC(=O)[C@H](CCC(=O)O)NC(=O)[C@@H](NC(=O)[C@@H](N)CCC(=O)O)[C@@H](C)CC)[C@@H](C)O)[C@@H](C)O)C(=O)NCC(=O)N[C@@H](Cc1c[nH]c2ccccc12)C(=O)N[C@@H](Cc1c[nH]c2ccccc12)C(=O)O; experiment: Steady-state kinetic study of lipoylated peptides with Sirt2 (HPLC); format: biochemical; conditions: other: Sirt2, 400 μM NAD+, HEPES pH 8.0, 37° C.
Procedure: (§1) The delipoylation activity of HDAC8 was further examined using KAlip-5 and KAlip-1. […] A more detailed assessment of the enzymatic delipoylation reaction was performed. Time-dependent experiments and steady-state kinetics studies were conducted of KAlip-1, 5, 8, and 10 with Sirt2 (Table 1).
(§2) To determine the values of kcat, and Km, purified Sirt2 with 400 μM NAD+ was incubated with different concentrations of lipoylated peptide (0-120 μM) in 20 mM HEPES buffer (pH 8.0) containing 150 mM NaCl, 1 mM MgCl2, and 2.7 mM KCl at 37° C. for 10 min (KAlip-1 and KAlip-10) or 5 min (KAlip-5 and KAlip-8). The reactions were quenched by adding 250 μL of methanol and then applied for HPLC analysis with a linear gradient of 5% to 85% B (acetonitrile) for 30 min. The generated delipoylated product was quantified based on the peak area monitored at 280 nm. The kcat, and Km, values were calculated by curve-fitting Vinitiai/[E] versus [S]. The experiments were conducted in duplicate.

[4] = substrate: C[C@H](NC(=O)[C@@H](NC(=O)[C@H](CCC(N)=O)NC(=O)[C@@H](N)CCCCN)[C@@H](C)O)C(=O)N[C@@H](CCCNC(=N)N)C(=O)N[C@@H](CCCCNC(=O)CCCCC1CCSS1)C(=O)N[C@@H](CO)C(=O)N[C@H](C(=O)NCC(=O)NCC(=O)N[C@@H](Cc1c[nH]c2ccccc12)C(=O)N[C@@H](Cc1c[nH]c2ccccc12)C(=O)O)[C@@H](C)O; experiment: as above; format: biochemical; conditions: other: Sirt2, 400 μM NAD+, HEPES pH 8.0, 37° C.
Procedure: as §1, §2

[5] = substrate: CSCC[C@H](NC(=O)[C@H](C)NC(=O)[C@H](CCC(=O)O)NC(=O)[C@@H](N)C(C)C)C(=O)N[C@@H](CCCCNC(=O)CCCCC1CCSS1)C(=O)N[C@@H](CC(C)C)C(=O)N[C@@H](CCSC)C(=O)N[C@@H](CC(N)=O)C(=O)N[C@@H](CCC(=O)O)C(=O)N[C@@H](Cc1c[nH]c2ccccc12)C(=O)N[C@@H](Cc1c[nH]c2ccccc12)C(=O)O; experiment: as above; format: biochemical; conditions: other: Sirt2, 400 μM NAD+, HEPES pH 8.0, 37° C.
Procedure: as §1, §2

[6] = substrate: CC(C)[C@H](N)C(=O)N[C@@H](CCC(N)=O)C(=O)N[C@@H](CO)C(=O)N[C@@H](CC(=O)O)C(=O)N[C@@H](CCCCNC(=O)CCCCC1CCSS1)C(=O)N[C@@H](C)C(=O)N[C@@H](CO)C(=O)N[C@H](C(=O)N[C@H](C(=O)N[C@@H](Cc1c[nH]c2ccccc12)C(=O)N[C@@H](Cc1c[nH]c2ccccc12)C(=O)O)[C@@H](C)O)C(C)C; experiment: as above; format: biochemical; conditions: other: Sirt2, 400 μM NAD+, HEPES pH 8.0, 37° C.
Procedure: as §1, §2

Molecule | Delipoylation product (HPLC yield of delipoylated product) (Sirt2 [1]) | other results
EIETDK(lip)AVVTWW [KAlip-6] | 100% | 
CC(C)[C@H](N)C(=O)N[C@@H](CCC(N)=O)C(=O)N[C@@H](CO)C(=O)N[C@@H](CC(=O)O)C(=O)N[C@@H](CCCCNC(=O)CCCCC1CCSS1)C(=O)N[C@@H](C)C(=O)N[C@@H](CO)C(=O)N[C@H](C(=O)N[C@H](C(=O)N[C@@H](Cc1c[nH]c2ccccc12)C(=O)N[C@@H](Cc1c[nH]c2ccccc12)C(=O)O)[C@@H](C)O)C(C)C (stereo partly drawn) [KAlip-8, VQSD K(lip)ASVTWW] (H-VQSDK(Lipoyl(6ξ))ASVTWW-OH) | 100% | 
VKSK(lip)ATNL WW [KAlip-2] | 97% | 
VQSDKlipASVT [lipoylated peptide competitor] |  | Inhibition of KPlip labelling of Sirt2 (Sirt2 [2]): can be inhibited
CSCC[C@H](NC(=O)[C@H](C)NC(=O)[C@H](CCC(=O)O)NC(=O)[C@@H](N)C(C)C)C(=O)N[C@@H](CCCCNC(=O)CCCCC1CCSS1)C(=O)N[C@@H](CC(C)C)C(=O)N[C@@H](CCSC)C(=O)N[C@@H](CC(N)=O)C(=O)N[C@@H](CCC(=O)O)C(=O)N[C@@H](Cc1c[nH]c2ccccc12)C(=O)N[C@@H](Cc1c[nH]c2ccccc12)C(=O)O (stereo partly drawn) [KAlip-11, VEAMK(lip)LMNE WW] (H-VEAMK(Lipoyl(6ξ))LMNEWW-OH) | 94% | 
EALPKK(lip) TGGPWW [KAlip-9] | 100% | 
CC[C@H](C)[C@H](NC(=O)[C@@H](NC(=O)[C@H](C)NC(=O)[C@H](CCCCNC(=O)CCCCC1CCSS1)NC(=O)[C@H](CC(=O)O)NC(=O)[C@@H](NC(=O)[C@H](CCC(=O)O)NC(=O)[C@@H](NC(=O)[C@@H](N)CCC(=O)O)[C@@H](C)CC)[C@@H](C)O)[C@@H](C)O)C(=O)NCC(=O)N[C@@H](Cc1c[nH]c2ccccc12)C(=O)N[C@@H](Cc1c[nH]c2ccccc12)C(=O)O (stereo partly drawn) [KAlip-5, EIETDK(lip)ATIGWW] (H-EIETDK(Lipoyl(6ξ))ATIGWW-OH) | 100% | 
EIETDK(lip) TSVQWW [KAlip-7] | 65% | 
SGASEK(lip)DIVHSGWW [KAlip-4] | 100% | 
SDPIIK(lip)GSGTWW [KAlip-3] | 98% | 
C[C@H](NC(=O)[C@@H](NC(=O)[C@H](CCC(N)=O)NC(=O)[C@@H](N)CCCCN)[C@@H](C)O)C(=O)N[C@@H](CCCNC(=N)N)C(=O)N[C@@H](CCCCNC(=O)CCCCC1CCSS1)C(=O)N[C@@H](CO)C(=O)N[C@H](C(=O)NCC(=O)NCC(=O)N[C@@H](Cc1c[nH]c2ccccc12)C(=O)N[C@@H](Cc1c[nH]c2ccccc12)C(=O)O)[C@@H](C)O (stereo partly drawn) [KAlip-1, KQTARK(lip)STGGWW] (H-KQTARK(Lipoyl(6ξ))STGGWW-OH) | 59% | 
B1 |  | Km [3]: 18.9 µM; Km [4]: 9.7 ± 0.2 µM; Km [5]: 13.5 µM; Km [6]: 26.2 ± 3.3 µM
